The values below come from US5910509A, “Antimicrobial agent for agriculture” (priority 1996, dated 1999).

The remaining activity is the signal under treatment as a percentage of the control signal. The zone of inhibition is the extent of the growth-free halo in a diffusion test.

One assay has as its system Fungal cells. Kind of assay: Disk diffusion assay for antimicrobial activity. It is filed as cell-based. The following applies: 37° C., 24 hours; for zone appearance (clear = fungicidal, hazy = fungistatic): disk diffusion; for zone of growth inhibition diameter: positive control disks 2.5 and 10 μg; for zone of inhibition at 100 µg/disc: 100 μg per 6 mm disk, Sabouraud Dextrose Agar, read-out: zone of growth inhibition diameter. As for the experimental part:
(§1) Fungal cells were grown overnight from a single colony in 2-5 ml Sabouraud Dextrose Broth at 37° C. 1-5×10^6 were spread onto Sabouraud Dextrose Agar plates (Difco, Detroit, Mich.). Sterile 6 mm filter disks were evenly spaced with at least about 22 mm separation on the plates. To each disk, 100 μg of a compound to be tested was applied in 5-10 μl DMSO. On each plate, two disks containing 2.5 and 10 μg, respectively, of Amphotericin B (Sigma) and two disks containing 2.5 and 10 μg, respectively, of cerulenin (Sigma) were used as positive controls. A disk containing only DMSO served as the negative control. The plates were incubated at 37° C. for 24 hours and the zone of growth inhibition about each disk was visually examined and measured. Compound A and compound B typically produced clear zones of 8-12 mm diameter. Amphotericin B typically produced a clear zone of 8-10 mm diameter. Cerulenin typically produced a hazy zone of 20-25 mm diameter. A clear zone is indicative of fungicidal activity, while a hazy zone is indicative of fungistatic activity.

Assay [1] concerns C. albicans strain ATCC 10231. In words: Murine systemic model of candidiasis. It is filed as in vivo, mice. The following applies: for Deaths Each Day Post Inoculation: 10 mg/kg IP. As for the experimental part: In vivo activity was determined using a murine systemic model of candidiasis. Groups of 5 to 10 mice were inoculated IV with 1-2×10^7 cells of C. albicans strain ATCC 10231 (10 times the lethal dose). One hour after inoculation, the candidate antifungal compounds were delivered IP. 10 mg/kg of compound A was injected into each mouse of the compound A treatment group. Two separate treatment groups received 30 and 100 mg/kg, respectively, of compound B. Amphotericin B was injected into a positive control treatment group at 10 mg/kg. All compounds were delivered in phosphate-buffered saline (PBS) and one treatment group received PBS. Twice daily thereafter the mice were observed, the number of dead mice recorded, and the dead mice removed. After nine days, the total mortality over the period was determined.
Using the same methodology, it was determined that the maximal tolerated dose in these mice (i.e., the maximum dose that caused no deaths within 72 hours following IP administration) of compound B was in excess of 200 mg/kg. The mice treated with 2108B or Amphotericin B injected IP in […] of phosphate buffered saline, pH 7.4 had the following treatment profiles: […]

A further assay deals with T1, FAS (Candida albicans, UniProt P43098).
T1 construct: endogenous in cells; host or cells: Candida albicans strain 4918
T1 sequence (P43098 whole entry): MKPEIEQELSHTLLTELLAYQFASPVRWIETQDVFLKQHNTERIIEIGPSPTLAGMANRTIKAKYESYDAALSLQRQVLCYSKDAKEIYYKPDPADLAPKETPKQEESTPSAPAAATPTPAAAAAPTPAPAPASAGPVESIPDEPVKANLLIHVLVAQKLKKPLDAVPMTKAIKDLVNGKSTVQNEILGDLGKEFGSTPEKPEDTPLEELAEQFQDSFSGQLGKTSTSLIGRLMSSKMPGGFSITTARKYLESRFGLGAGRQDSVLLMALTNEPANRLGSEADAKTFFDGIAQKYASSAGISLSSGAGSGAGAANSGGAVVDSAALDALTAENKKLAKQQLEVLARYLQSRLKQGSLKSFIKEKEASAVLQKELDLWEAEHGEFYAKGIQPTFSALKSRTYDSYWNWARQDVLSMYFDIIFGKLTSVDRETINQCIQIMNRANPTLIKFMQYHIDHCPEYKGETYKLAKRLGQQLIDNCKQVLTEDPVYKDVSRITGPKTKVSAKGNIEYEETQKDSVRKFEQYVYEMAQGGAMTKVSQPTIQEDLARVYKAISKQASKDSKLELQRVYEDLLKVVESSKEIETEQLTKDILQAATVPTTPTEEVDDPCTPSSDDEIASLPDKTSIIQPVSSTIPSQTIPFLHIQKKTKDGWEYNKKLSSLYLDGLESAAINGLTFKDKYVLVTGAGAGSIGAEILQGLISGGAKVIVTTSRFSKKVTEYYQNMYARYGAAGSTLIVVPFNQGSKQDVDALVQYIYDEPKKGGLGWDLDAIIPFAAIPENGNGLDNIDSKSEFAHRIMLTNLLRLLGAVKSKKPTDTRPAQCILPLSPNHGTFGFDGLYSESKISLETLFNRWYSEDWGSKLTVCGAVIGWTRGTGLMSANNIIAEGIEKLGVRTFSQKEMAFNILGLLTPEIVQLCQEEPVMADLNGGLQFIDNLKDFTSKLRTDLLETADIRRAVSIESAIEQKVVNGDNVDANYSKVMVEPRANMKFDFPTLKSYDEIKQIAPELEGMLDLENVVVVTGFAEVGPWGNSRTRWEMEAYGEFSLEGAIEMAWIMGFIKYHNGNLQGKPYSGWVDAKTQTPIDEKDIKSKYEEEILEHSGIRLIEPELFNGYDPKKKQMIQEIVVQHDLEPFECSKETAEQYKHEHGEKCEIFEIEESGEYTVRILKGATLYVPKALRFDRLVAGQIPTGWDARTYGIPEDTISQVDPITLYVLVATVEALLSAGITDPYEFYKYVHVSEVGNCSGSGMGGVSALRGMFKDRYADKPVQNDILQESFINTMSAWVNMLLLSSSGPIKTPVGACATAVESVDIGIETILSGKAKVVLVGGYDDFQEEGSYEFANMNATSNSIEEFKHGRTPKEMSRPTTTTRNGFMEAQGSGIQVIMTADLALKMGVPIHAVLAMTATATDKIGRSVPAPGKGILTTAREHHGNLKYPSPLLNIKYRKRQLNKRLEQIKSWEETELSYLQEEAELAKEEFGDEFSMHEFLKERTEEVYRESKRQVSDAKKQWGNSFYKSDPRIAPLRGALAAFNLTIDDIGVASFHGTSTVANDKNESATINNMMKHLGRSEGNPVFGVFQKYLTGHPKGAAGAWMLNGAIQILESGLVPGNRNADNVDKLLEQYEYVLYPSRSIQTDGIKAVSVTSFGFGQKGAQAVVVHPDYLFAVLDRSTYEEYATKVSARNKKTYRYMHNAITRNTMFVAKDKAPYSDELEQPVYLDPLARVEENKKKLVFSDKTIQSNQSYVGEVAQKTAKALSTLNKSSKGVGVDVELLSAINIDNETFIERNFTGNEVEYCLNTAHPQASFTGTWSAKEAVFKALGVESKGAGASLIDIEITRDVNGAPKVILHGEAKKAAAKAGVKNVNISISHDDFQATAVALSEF
T1 sequence (P34731 whole entry partner): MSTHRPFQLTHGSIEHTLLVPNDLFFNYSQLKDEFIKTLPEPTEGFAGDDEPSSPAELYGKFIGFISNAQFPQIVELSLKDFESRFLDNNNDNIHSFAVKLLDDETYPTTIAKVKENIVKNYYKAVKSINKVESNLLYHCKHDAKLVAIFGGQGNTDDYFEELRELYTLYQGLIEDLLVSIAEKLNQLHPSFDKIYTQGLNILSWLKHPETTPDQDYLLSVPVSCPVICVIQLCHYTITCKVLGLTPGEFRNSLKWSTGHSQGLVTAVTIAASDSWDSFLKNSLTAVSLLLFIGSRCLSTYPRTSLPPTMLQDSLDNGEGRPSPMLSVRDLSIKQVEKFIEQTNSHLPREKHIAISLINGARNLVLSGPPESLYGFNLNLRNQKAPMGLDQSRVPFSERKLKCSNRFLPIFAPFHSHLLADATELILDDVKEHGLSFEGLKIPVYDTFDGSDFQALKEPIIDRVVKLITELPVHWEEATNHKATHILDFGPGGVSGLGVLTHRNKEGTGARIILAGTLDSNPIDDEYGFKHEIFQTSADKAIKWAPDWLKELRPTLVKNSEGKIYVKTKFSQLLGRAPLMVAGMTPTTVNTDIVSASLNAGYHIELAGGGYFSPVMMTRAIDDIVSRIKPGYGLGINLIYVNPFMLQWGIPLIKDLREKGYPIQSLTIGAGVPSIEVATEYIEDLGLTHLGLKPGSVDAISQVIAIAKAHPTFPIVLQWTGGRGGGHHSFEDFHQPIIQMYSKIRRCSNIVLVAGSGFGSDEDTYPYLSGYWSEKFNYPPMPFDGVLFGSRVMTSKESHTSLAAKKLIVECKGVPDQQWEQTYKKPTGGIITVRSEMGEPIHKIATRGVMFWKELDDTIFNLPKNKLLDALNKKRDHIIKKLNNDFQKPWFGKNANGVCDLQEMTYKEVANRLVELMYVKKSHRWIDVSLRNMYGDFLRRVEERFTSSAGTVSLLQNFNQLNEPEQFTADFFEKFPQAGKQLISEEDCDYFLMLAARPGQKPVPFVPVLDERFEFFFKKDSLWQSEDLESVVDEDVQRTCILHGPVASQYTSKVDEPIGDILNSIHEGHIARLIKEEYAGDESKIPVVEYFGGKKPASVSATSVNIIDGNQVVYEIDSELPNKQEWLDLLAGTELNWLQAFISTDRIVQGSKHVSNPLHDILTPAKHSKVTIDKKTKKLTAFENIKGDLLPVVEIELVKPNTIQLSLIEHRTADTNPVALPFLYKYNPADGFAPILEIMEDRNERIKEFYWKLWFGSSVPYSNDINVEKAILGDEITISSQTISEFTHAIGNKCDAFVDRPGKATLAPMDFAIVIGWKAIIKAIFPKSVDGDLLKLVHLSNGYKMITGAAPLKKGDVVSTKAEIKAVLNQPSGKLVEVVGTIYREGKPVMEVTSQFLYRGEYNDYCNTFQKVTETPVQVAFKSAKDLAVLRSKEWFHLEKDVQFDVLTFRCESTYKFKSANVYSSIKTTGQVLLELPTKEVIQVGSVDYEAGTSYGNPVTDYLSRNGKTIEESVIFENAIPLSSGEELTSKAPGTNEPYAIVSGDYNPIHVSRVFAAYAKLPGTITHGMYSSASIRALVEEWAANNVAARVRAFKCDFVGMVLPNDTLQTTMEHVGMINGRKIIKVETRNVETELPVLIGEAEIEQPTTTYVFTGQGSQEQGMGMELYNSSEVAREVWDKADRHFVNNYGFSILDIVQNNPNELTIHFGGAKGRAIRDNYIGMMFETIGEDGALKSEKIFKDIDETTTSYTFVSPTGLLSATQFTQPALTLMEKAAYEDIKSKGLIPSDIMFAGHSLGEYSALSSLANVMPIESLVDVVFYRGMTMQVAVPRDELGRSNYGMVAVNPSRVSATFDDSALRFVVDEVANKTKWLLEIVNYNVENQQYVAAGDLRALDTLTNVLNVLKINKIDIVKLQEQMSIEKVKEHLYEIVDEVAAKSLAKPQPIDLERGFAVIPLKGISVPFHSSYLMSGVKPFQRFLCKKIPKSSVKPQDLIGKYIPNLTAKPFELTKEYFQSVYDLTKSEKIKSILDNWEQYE
Kind of assay: FAS activity in extracts of treated C. albicans cultures (Example 10). It counts as cell-based. Here is the method: C. Albicans strain 4918 (available from Dr. Ronald Cihlar, Georgetown University Medical Center, Washington, D.C.) was grown in minimal medium (M63 media available from Difco, Detroit, Mich.) at 37° C. to mid-log phase. 10 μg/ml cerulenin and 25 μg/ml of compound B were added to separate cultures. At 15 minute intervals, 20 ml samples were removed and extracts prepared by mechanical extraction as in Example 1C, except that the ammonium sulfate precipitation step was not applied. The extract was diluted to 1 ml to form a solution containing 0.4M potassium phosphate, pH 7.3, 0.125 μM dithiothreitol, 50 μM acetyl-CoA, 100 μM NADPH. After incubation at 37° C. for 5 minutes, 100 μM malonyl-CoA containing 0.5 μCi [2-^14 C]-malonyl-CoA (Amersham, Arlington Heights, Ill.). After 10 minutes at 37° C., the fatty acid synthesis reaction was terminated by adding 30 μl of 60% perchloric acid (v/v) and 1 ml ethanol. Four volumes of pet. ether were added to each reaction incubation to extract the fatty acids. The relative incorporation of malonyl-CoA into fatty acids was determined by liquid scintillation counting.

In assay [2] the test system is Candida albicans (strains ATCC 10231 and ATCC 10261). Kind of assay: Disk diffusion assay, Candida albicans. It counts as cell-based. As for the experimental part: as §1
For assay [3], the system named is Candida Albicans strain B311A. Kind of assay: MIC assay (Example 1B). It is filed as cell-based. The following applies: purification fractions, result in words. Here is the method: The fractions from the purification were tested for antifungal activity against C. albicans (strain B311A available from Dr. Paul Actor, Temple University and strains ATCC Nos. 10231 and 10261) and C. tropicalis (strain 13803). Fungi were grown in 1× yeast nitrogen broth ("YNB") medium (BBL, Cockeysville, Md.) containing 15 μg/ml aspargine and 100 μg/ml kanamycin. Prior to the assay for antifungal activity, the fungus to be tested for susceptibility was grown overnight from a single colony in 5 ml of medium at 30° C. This overnight culture was diluted 1:10 with fresh medium and grown at 37° C. for 4 hours. A volume of 5 μl of extracts, dissolved in DMSO, was added to each separate well in a series of 96-well plates. 4,000 fungal cells were then added to each plate in 95 μl of medium. The optical densities of the wells were measured and the plates incubated at 37° C. The optical densities were again measured after 24 and 48 hours. Minimum inhibitory concentrations ("MICs") for the extracts were determined using this procedure wherein the extracts were serially diluted in medium prior to mixing with the 4,000 fungal cells.
Using the procedure described in the previous paragraph, it was determined that the MICs for compound A and compound B against Candida Albicans strain B311A grown in YNB medium were 25 μg/ml and 6.25 μg/ml, respectively. […]

The target in another assay is T2, FAS from S. cereviseae (Saccharomyces cerevisiae, UniProt P07149+P19097).
T2 construct: an FAS extract from Saccharomyces cerviseae was prepared; (the yeast cells); host or cells: Fleishmans' freeze dried yeast (Saccharomyces cerevisiae); lysate, 50% ammonium sulfate precipitate, dialyzed
In words: FAS inhibition assay (Example 1C). It counts as biochemical, Saccharomyces cerviseae. The following applies: result in words. Here is the method: To test the compounds for FAS inhibitory activity, an FAS extract from Saccharomyces cerviseae was prepared. Freeze dried yeast (Fleishmans' freeze dried yeast, Specialty Brands, San Francisco, Calif.) 1 g, was hydrated in 5 mls deionized water for 15 minutes at 4° C. Subsequent extraction steps were conducted at a temperature between 4° C. and 10° C., except that in the cell lysis step the temperature may have briefly exceeded these boundaries. The cells were pelleted by centrifugation; the pelleted volume was measured; and the cells were resuspended in 5 vol. (5 mls per ml cell volume) extraction buffer [125 mM KH2PO4, pH 6.6, 1 mM EDTA, 1 mM DTT, 0.7 μg/ml pepstatin (Boehringer Mannheim, Indianapolis, Ind.), 0.2 μg/ml aprotinin (Boehringer Mannheim, Indianapolis, Ind.), 0.2 μg/ml leupeptin (Boehringer Mannheim, Indianapolis, Ind.)]. The cells were again pelleted and resuspended in 2 vol. extraction buffer. […]
105 μl of FAS extract was placed in each well of a polypropylene 96 well plate (Costar Corp. Cambridge, Mass.) and multiple 5 μl dilutions of compound A, compound B or negative control solution were introduced into each of the wells. […] The relative initial reaction rates in each well were measured by measuring the decrease in optical density at 340 nm using a UV Max microtiter plate reader (Molecular Devices, Sunnyvalle, Calif.).

Assay [4] deals with Candida tropicalis (strain ATCC 13803). In words: Disk diffusion assay, Candida tropicalis. It is filed as cell-based. As for the experimental part: as §1
On the technique in general: Agar diffusion results depend on both activity and mobility in agar.

The subject of assay [5] is Fusarium acuminatum (strains ATCC 32965 and ATCC 32966). Kind of assay: Disk diffusion assay, Fusarium acuminatum. It is filed as cell-based. Here is the method:
as §1

Setting [6] is: 0.5 h, read-out: Percent Remaining FAS Activity.

Read-outs that look alike come from different tables or passages of the source.

Turning to `C[C@@H]1[C@H](O)[C@@H](C)/C=C/C=C/C=C/C=C/C=C/C=C/C=C/[C@H](O[C@@H]2O[C@H](C)[C@@H](O)[C@H](N)[C@@H]2O)C[C@@H]2O[C@](O)(C[C@@H](O)C[C@@H](O)[C@H](O)CC[C@@H](O)C[C@@H](O)CC(=O)O[C@H]1C)C[C@H](O)[C@H]2C(=O)O` [Amphotericin B], the “zone appearance (clear = fungicidal, hazy = fungistatic)” value (“zone appearance” for short) with Fungal cells is reported as “clear zone”. The “zone of growth inhibition diameter” value in the assay on Fungal cells is listed as 8-10 mm. For the same compound, in assay [1] (10 mg/kg IP one hour after inoculation, nine days), the “% Survival” value was found to be 80%. Moreover, the “Deaths Each Day Post Inoculation” value in assay [1] (day 0), in assay [1] (day 1), in assay [1] (day 3), in assay [1] (day 5), in assay [1] (day 6) and in assay [1] (day 7) was 0 each time. Further, the “Deaths Each Day Post Inoculation” value in assay [1] (day 8) and in assay [1] (day 9) was 0 in each case.
As to `C/C=C/C/C=C/CCC(=O)[C@H]1O[C@H]1C(N)=O` [Cerulenin, cerulenin], the “zone appearance” value with Fungal cells is given as “hazy zone”. Also, the “zone of growth inhibition diameter” value in the assay with Fungal cells is 20-25 mm. Besides, the remaining activity at 10 µg/mL on FAS (0.25 h, read-out: Percent Remaining FAS Activity) was 20%; at FAS (setting [6]), 12%.
As to `C/C=C/C=C/C=C/C1=CC2=CC(=O)C(C)(OC(=O)CC(C)O)C(=O)C23OC3O1` (centres unmarked) [Compound A], the antimicrobial activity entry in assay [2], in assay [4] and in assay [5] was “had antimicrobial activity” throughout. The “activity in the MIC assay of Example 1B” value in assay [3] is on record as “retained activity”. In addition, the zone of inhibition at 100 µg/disc with Fungal cells lay within 8 to 12 mm. Further, the “zone appearance” value in the assay on Fungal cells is given as “clear zones”. For the same compound, the “activity in the enzyme inhibition assay of Example 1C” value on FAS from S. cereviseae is given as “retained activity”.
Regarding `C/C=C/C=C/C=C/C1=CC2=CC(=O)C(C)(OC(=O)CC(C)O)C(=O)C2=CO1` (centres unmarked) [Compound B], the antimicrobial activity result in assay [2], in assay [4] and in assay [5] was “had antimicrobial activity” each time. Further, the “activity in the MIC assay of Example 1B” value in assay [3] is given as “retained activity”. Besides, in the assay with Fungal cells, the zone of inhibition at 100 µg/disc lay within 8 to 12 mm. In addition, the “zone appearance” value with Fungal cells was “clear zones”. The “activity in the enzyme inhibition assay of Example 1C” value on FAS from S. cereviseae is on record as “not directly inhibitory of FAS”. On FAS, the “FAS activity of cell extracts made after exposure” value is given as “markedly reduced FAS activity”. Moreover, at FAS (setting [6]), the remaining activity at 25 µg/mL stood at 40%.
In the case of `C/C=C/C=C/C=C/C1=CC2=CC(=O)C(C)(OC(=O)CC(O)CC(C)O)C(=O)C23OC3O1` (centres unmarked) [patulodin], the zone of inhibition at 100 µg/disc with Fungal cells amounted to 7 mm.
